Species on record: Rattus norvegicus
Test: Open TG-GATES - Regimen: Daily Repeat
Format: toxicity, organism-based, Sprague-Dawley
Set-up: regimen Daily Repeat, gender Male, age 6 weeks
Settings: in vivo, po, route gavage; for APTT / Bas / Eos / Fbg / Hb / Ht / Lym / MCH / MCHC / MCV / Mono / Neu / PT / Plat / RBC / Ret / WBC: tissue Blood; for KIDNEY_L / KIDNEY_R / KIDNEY_TOTAL: tissue Kidney; for LIVER: tissue Liver; for A/G / ALP / ALT / AST / BUN / CRE / Ca / Cl / DBIL / GLC / IP / K / LDH / Na / PL / RALB / TBIL / TC / TG / TP / gamma-GTP: tissue Plasma
[1] = 0 mg/kg, 72 h, dose level Control, time 3 day
[2] = 0 mg/kg, […], dose level Control, time 7 day
[3] = 0 mg/kg, […], dose level Control, time 14 day
[4] = 0 mg/kg, […], dose level Control, time 28 day
[5] = 3 mg/kg, 72 h, dose level Low, time 3 day
[6] = 3 mg/kg, […], dose level Low, time 7 day
[7] = 3 mg/kg, […], dose level Low, time 14 day
[8] = 3 mg/kg, […], dose level Low, time 28 day

CCN(CC)N=O [N-NITROSODIETHYLAMINE]
TERMINAL_BW [1]: 240.5 g
APTT [1]: 18.3 s
Bas [1]: 0.8%
Eos [1]: 1.2%
Fbg [1]: 218.2 mg/dL
Hb [1]: 13.8 g/dL
Ht [1]: 39.7%
Lym [1]: 77.6%
MCH [1]: 21.7 pg
MCHC [1]: 34.8%
MCV [1]: 62.3 fL
Mono [1]: 2.6%
Neu [1]: 17.6%
PT [1]: 12 s
Plat [1]: 135 x10_4/uL
RBC [1]: 638.8 x10_4/ul
Ret [1]: 5.8%
WBC [1]: 87.8 x10_2/uL
KIDNEY_L [1]: 1 g
KIDNEY_R [1]: 1 g
KIDNEY_TOTAL [1]: 2 g
LIVER [1]: 10.5 g
A/G [1]: 1.6
ALP [1]: 962 IU/L
ALT [1]: 35.8 IU/L
AST [1]: 67 IU/L
BUN [1]: 16.2 mg/dL
CRE [1]: 0.4 mg/dL
Ca [1]: 10.8 mg/dL
Cl [1]: 102.2 meq/L
DBIL [1]: 0.09 mg/dL
GLC [1]: 200.6 mg/dL
IP [1]: 8 mg/dL
K [1]: 4 meq/L
LDH [1]: 211.2 IU/L
Na [1]: 140.2 meq/L
PL [1]: 153 mg/dL
RALB [1]: 3.4 g/dL
TBIL [1]: 0.1 mg/dL
TC [1]: 82.6 mg/dL
TG [1]: 79.2 mg/dL
TP [1]: 5.6 g/dL
gamma-GTP [1]: 1 IU/L
TERMINAL_BW [2]: 275.8 g
TERMINAL_BW [3]: 325.9 g
TERMINAL_BW [4]: 396.4 g
APTT [2]: 20.6 s
Bas [2]: 0%
Eos [2]: 1%
Fbg [2]: 217.4 mg/dL
Hb [2]: 13.5 g/dL
Ht [2]: 38.7%
Lym [2]: 79.6%
MCH [2]: 21.3 pg
MCHC [2]: 34.9%
MCV [2]: 61 fL
Mono [2]: 2.4%
Neu [2]: 16%
PT [2]: 11.8 s
Plat [2]: 142.9 x10_4/uL
RBC [2]: 634 x10_4/ul
Ret [2]: 5.8%
WBC [2]: 109.2 x10_2/uL
APTT [3]: 21.7 s
Bas [3]: 1%
Eos [3]: 0.8%
Fbg [3]: 216.6 mg/dL
Hb [3]: 14.7 g/dL
Ht [3]: 41.9%
Lym [3]: 82%
MCH [3]: 21 pg
MCHC [3]: 35%
MCV [3]: 60.1 fL
Mono [3]: 1.8%
Neu [3]: 13.8%
PT [3]: 12 s
Plat [3]: 124.2 x10_4/uL
RBC [3]: 697 x10_4/ul
Ret [3]: 4.3%
WBC [3]: 94.2 x10_2/uL
APTT [4]: 21.9 s
Bas [4]: 0.8%
Eos [4]: 1.4%
Fbg [4]: 225 mg/dL
Hb [4]: 15.5 g/dL
Ht [4]: 42.3%
Lym [4]: 80.8%
MCH [4]: 20.4 pg
MCHC [4]: 36.6%
MCV [4]: 55.8 fL
Mono [4]: 2%
Neu [4]: 14.8%
PT [4]: 11.6 s
Plat [4]: 108.6 x10_4/uL
RBC [4]: 758.6 x10_4/ul
Ret [4]: 2.6%
WBC [4]: 81 x10_2/uL
KIDNEY_L [2]: 1.2 g
KIDNEY_R [2]: 1.1 g
KIDNEY_TOTAL [2]: 2.3 g
KIDNEY_L [3]: 1.3 g
KIDNEY_R [3]: 1.3 g
KIDNEY_TOTAL [3]: 2.6 g
KIDNEY_L [4]: 1.3 g
KIDNEY_R [4]: 1.3 g
KIDNEY_TOTAL [4]: 2.7 g
LIVER [2]: 12.4 g
LIVER [3]: 13.5 g
LIVER [4]: 14.9 g
A/G [2]: 1.5
ALP [2]: 863.2 IU/L
ALT [2]: 32.2 IU/L
AST [2]: 66.2 IU/L
BUN [2]: 15 mg/dL
CRE [2]: 0.4 mg/dL
Ca [2]: 10.4 mg/dL
Cl [2]: 103.2 meq/L
DBIL [2]: 0.1 mg/dL
GLC [2]: 194.8 mg/dL
IP [2]: 8.5 mg/dL
K [2]: 4.1 meq/L
LDH [2]: 190 IU/L
Na [2]: 141 meq/L
PL [2]: 153 mg/dL
RALB [2]: 3.3 g/dL
TBIL [2]: 0.2 mg/dL
TC [2]: 83.2 mg/dL
TG [2]: 102.8 mg/dL
TP [2]: 5.5 g/dL
gamma-GTP [2]: 1 IU/L
A/G [3]: 1.5
ALP [3]: 688.8 IU/L
ALT [3]: 31 IU/L
AST [3]: 64.2 IU/L
BUN [3]: 15 mg/dL
CRE [3]: 0.5 mg/dL
Ca [3]: 10.6 mg/dL
Cl [3]: 101.6 meq/L
DBIL [3]: 0.086 mg/dL
GLC [3]: 205 mg/dL
IP [3]: 8 mg/dL
K [3]: 4 meq/L
LDH [3]: 198.4 IU/L
Na [3]: 141.6 meq/L
PL [3]: 144.4 mg/dL
RALB [3]: 3.4 g/dL
TBIL [3]: 0.1 mg/dL
TC [3]: 72.8 mg/dL
TG [3]: 93.6 mg/dL
TP [3]: 5.8 g/dL
gamma-GTP [3]: 1 IU/L
A/G [4]: 1.3
ALP [4]: 606.8 IU/L
ALT [4]: 33 IU/L
AST [4]: 63.6 IU/L
BUN [4]: 17.4 mg/dL
CRE [4]: 0.5 mg/dL
Ca [4]: 10.3 mg/dL
Cl [4]: 103 meq/L
DBIL [4]: 0.092 mg/dL
GLC [4]: 208.4 mg/dL
IP [4]: 6.9 mg/dL
K [4]: 3.7 meq/L
LDH [4]: 203 IU/L
Na [4]: 141 meq/L
PL [4]: 135.2 mg/dL
RALB [4]: 3.5 g/dL
TBIL [4]: 0.2 mg/dL
TC [4]: 72.4 mg/dL
TG [4]: 104 mg/dL
TP [4]: 6.1 g/dL
gamma-GTP [4]: 1.2 IU/L
TERMINAL_BW [5]: 235.3 g
APTT [5]: 18.7 s
Bas [5]: 0.2%
Eos [5]: 1%
Fbg [5]: 224.6 mg/dL
Hb [5]: 13.3 g/dL
Ht [5]: 38.4%
Lym [5]: 82%
MCH [5]: 21.3 pg
MCHC [5]: 34.7%
MCV [5]: 61.5 fL
Mono [5]: 2%
Neu [5]: 14.2%
PT [5]: 11.7 s
Plat [5]: 134.1 x10_4/uL
RBC [5]: 624.4 x10_4/ul
Ret [5]: 5.5%
WBC [5]: 68.1 x10_2/uL
KIDNEY_L [5]: 1.1 g
KIDNEY_R [5]: 1.1 g
KIDNEY_TOTAL [5]: 2.1 g
LIVER [5]: 10.5 g
A/G [5]: 1.5
ALP [5]: 1018.6 IU/L
ALT [5]: 33 IU/L
AST [5]: 65.8 IU/L
BUN [5]: 14.2 mg/dL
CRE [5]: 0.4 mg/dL
Ca [5]: 10.8 mg/dL
Cl [5]: 102.6 meq/L
DBIL [5]: 0.094 mg/dL
GLC [5]: 204.6 mg/dL
IP [5]: 8.5 mg/dL
K [5]: 4.3 meq/L
LDH [5]: 217.4 IU/L
Na [5]: 140.6 meq/L
PL [5]: 142.4 mg/dL
RALB [5]: 3.3 g/dL
TBIL [5]: 0.1 mg/dL
TC [5]: 72.4 mg/dL
TG [5]: 114.4 mg/dL
TP [5]: 5.5 g/dL
gamma-GTP [5]: 1.4 IU/L
TERMINAL_BW [6]: 272 g
TERMINAL_BW [7]: 323.6 g
TERMINAL_BW [8]: 391.5 g
APTT [6]: 20.6 s
Bas [6]: 0%
Eos [6]: 1%
Fbg [6]: 219.2 mg/dL
Hb [6]: 14 g/dL
Ht [6]: 40%
Lym [6]: 78.2%
MCH [6]: 21.1 pg
MCHC [6]: 34.8%
MCV [6]: 60.7 fL
Mono [6]: 3%
Neu [6]: 17.2%
PT [6]: 11.9 s
Plat [6]: 142 x10_4/uL
RBC [6]: 659.8 x10_4/ul
Ret [6]: 4.8%
WBC [6]: 96.9 x10_2/uL
APTT [7]: 19.8 s
Bas [7]: 0.8%
Eos [7]: 1%
Fbg [7]: 213.2 mg/dL
Hb [7]: 14.4 g/dL
Ht [7]: 41.3%
Lym [7]: 78.4%
MCH [7]: 20.8 pg
MCHC [7]: 34.9%
MCV [7]: 59.5 fL
Mono [7]: 2%
Neu [7]: 17.4%
PT [7]: 12 s
Plat [7]: 139.4 x10_4/uL
RBC [7]: 695.4 x10_4/ul
Ret [7]: 4.1%
WBC [7]: 103.2 x10_2/uL
APTT [8]: 19.1 s
Bas [8]: 0.6%
Eos [8]: 1.2%
Fbg [8]: 215.6 mg/dL
Hb [8]: 15.4 g/dL
Ht [8]: 42.5%
Lym [8]: 80.4%
MCH [8]: 20.3 pg
MCHC [8]: 36.3%
MCV [8]: 55.9 fL
Mono [8]: 2.4%
Neu [8]: 15%
PT [8]: 11.7 s
Plat [8]: 124.2 x10_4/uL
RBC [8]: 759.6 x10_4/ul
Ret [8]: 2.9%
WBC [8]: 104.7 x10_2/uL
KIDNEY_L [6]: 1.2 g
KIDNEY_R [6]: 1.2 g
KIDNEY_TOTAL [6]: 2.3 g
KIDNEY_L [7]: 1.3 g
KIDNEY_R [7]: 1.2 g
KIDNEY_TOTAL [7]: 2.5 g
KIDNEY_L [8]: 1.3 g
KIDNEY_R [8]: 1.3 g
KIDNEY_TOTAL [8]: 2.7 g
LIVER [6]: 12 g
LIVER [7]: 13 g
LIVER [8]: 14 g
A/G [6]: 1.6
ALP [6]: 847.6 IU/L
ALT [6]: 31.2 IU/L
AST [6]: 67.2 IU/L
BUN [6]: 15.4 mg/dL
CRE [6]: 0.4 mg/dL
Ca [6]: 10.6 mg/dL
Cl [6]: 103.4 meq/L
DBIL [6]: 0.1 mg/dL
GLC [6]: 191.6 mg/dL
IP [6]: 8.2 mg/dL
K [6]: 4.4 meq/L
LDH [6]: 214.2 IU/L
Na [6]: 140.4 meq/L
PL [6]: 131.6 mg/dL
RALB [6]: 3.4 g/dL
TBIL [6]: 0.2 mg/dL
TC [6]: 66.8 mg/dL
TG [6]: 122.2 mg/dL
TP [6]: 5.5 g/dL
gamma-GTP [6]: 1 IU/L
A/G [7]: 1.4
ALP [7]: 752 IU/L
ALT [7]: 36 IU/L
AST [7]: 68.6 IU/L
BUN [7]: 15.2 mg/dL
CRE [7]: 0.4 mg/dL
Ca [7]: 10.6 mg/dL
Cl [7]: 102 meq/L
DBIL [7]: 0.096 mg/dL
GLC [7]: 192.2 mg/dL
IP [7]: 7.7 mg/dL
K [7]: 3.9 meq/L
LDH [7]: 190.2 IU/L
Na [7]: 141.2 meq/L
PL [7]: 129.4 mg/dL
RALB [7]: 3.4 g/dL
TBIL [7]: 0.2 mg/dL
TC [7]: 68.8 mg/dL
TG [7]: 79.4 mg/dL
TP [7]: 5.8 g/dL
